Results on one molecule are retold here after ChEMBL document CHEMBL4261613, “Discovery of a potent orally bioavailable retinoic acid receptor-related orphan receptor-gamma-t (RORγt) inhibitor, S18-000003” (Bioorg Med Chem Lett, 2018).

Series [1] addresses T1, Oxysterols receptor LXR-alpha (Homo sapiens, UniProt Q13133).
T1 sequence (Q13133 whole entry): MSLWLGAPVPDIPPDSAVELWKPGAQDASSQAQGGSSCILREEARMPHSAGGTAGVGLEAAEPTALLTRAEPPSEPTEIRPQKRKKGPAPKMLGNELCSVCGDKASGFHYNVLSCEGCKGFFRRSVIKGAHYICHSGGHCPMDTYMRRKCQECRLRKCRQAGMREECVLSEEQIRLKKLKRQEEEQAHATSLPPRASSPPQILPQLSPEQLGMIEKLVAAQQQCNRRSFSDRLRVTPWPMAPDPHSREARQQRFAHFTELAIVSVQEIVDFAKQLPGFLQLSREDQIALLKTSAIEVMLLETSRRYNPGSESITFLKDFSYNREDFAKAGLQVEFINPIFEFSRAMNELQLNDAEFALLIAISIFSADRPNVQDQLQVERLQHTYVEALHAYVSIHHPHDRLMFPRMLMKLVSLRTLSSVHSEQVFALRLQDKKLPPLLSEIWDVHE
Briefly: Transrepression of recombinant human GAL4-DBD fused LXRalpha LBD expressed in HEK293 cells after 20 hrs by luciferase reporter gene assay. The series is classed as cell-based. Background: Reporter assays use an easily measured gene product as a stand-in for the process of interest.

The target of series [2] is T2, Nuclear receptor ROR-gamma (Homo sapiens, UniProt P51449).
T2 sequence (P51449 whole entry): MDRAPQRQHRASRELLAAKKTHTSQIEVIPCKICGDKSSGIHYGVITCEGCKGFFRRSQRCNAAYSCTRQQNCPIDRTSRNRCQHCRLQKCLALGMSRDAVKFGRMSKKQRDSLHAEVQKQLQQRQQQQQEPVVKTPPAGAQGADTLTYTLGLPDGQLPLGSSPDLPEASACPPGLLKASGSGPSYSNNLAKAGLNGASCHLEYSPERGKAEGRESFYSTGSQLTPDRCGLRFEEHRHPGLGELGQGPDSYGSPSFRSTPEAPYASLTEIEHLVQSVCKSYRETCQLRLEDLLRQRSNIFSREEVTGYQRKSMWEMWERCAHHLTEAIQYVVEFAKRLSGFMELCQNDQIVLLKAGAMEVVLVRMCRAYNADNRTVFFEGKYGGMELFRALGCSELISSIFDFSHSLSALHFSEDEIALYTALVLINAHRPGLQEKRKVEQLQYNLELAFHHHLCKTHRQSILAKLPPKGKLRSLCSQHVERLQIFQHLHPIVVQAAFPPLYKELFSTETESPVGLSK
Put plainly: (§1) Transrepression of recombinant human GAL4-DBD fused RORgammat LBD expressed in HEK293 cells after 20 hrs by luciferase reporter gene assay. The format is cell-based.

Series [3] has as its target T3, Nuclear receptor ROR-gamma (Homo sapiens) (UniProt P51449).
T3 sequence (whole entry): T2 sequence (P51449 whole entry)
Described as §1. The format is cell-based.

In series [4] the target is T4, Nuclear receptor ROR-gamma (Mus musculus, UniProt P51450).
T4 sequence (P51450 whole entry): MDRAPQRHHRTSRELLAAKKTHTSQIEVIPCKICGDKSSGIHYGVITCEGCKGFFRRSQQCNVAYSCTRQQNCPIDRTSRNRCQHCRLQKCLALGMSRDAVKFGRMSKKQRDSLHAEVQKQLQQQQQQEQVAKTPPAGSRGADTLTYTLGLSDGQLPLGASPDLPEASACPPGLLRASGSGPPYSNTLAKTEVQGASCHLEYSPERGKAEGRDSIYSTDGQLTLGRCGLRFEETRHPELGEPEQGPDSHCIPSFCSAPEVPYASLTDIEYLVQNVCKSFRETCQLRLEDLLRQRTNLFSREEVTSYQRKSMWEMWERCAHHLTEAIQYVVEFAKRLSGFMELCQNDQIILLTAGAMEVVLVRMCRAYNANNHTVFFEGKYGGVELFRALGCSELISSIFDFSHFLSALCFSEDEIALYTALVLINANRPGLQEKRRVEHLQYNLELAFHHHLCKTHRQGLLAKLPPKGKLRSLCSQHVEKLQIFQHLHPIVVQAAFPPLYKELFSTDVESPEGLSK
Briefly: Transrepression of RORgammat in anti-CD3/CD28 stimulated C57BL/6 mouse CD4-positive T cells assessed as suppression of T cell differentiation to Th17 cells by measuring reduction in IL-17A level after 4 days by ELISA. A general note: In an ELISA, binding on a coated surface is turned into a signal by an enzyme label.

The target in series [5] is T5, Nuclear receptor ROR-alpha (Homo sapiens, UniProt P35398).
T5 sequence (P35398 whole entry): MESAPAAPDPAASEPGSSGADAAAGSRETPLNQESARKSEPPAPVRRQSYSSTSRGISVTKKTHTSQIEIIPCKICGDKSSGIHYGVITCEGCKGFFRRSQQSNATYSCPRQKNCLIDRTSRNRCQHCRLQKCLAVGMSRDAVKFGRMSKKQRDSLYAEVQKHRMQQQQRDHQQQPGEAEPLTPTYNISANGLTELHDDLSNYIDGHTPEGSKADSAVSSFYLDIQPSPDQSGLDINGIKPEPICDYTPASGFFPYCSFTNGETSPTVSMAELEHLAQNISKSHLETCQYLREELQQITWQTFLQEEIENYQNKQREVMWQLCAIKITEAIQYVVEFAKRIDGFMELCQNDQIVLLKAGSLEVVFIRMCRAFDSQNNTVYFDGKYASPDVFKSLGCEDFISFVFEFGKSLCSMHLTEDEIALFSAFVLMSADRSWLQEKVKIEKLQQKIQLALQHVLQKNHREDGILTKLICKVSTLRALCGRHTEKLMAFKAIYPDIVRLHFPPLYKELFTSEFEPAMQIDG
Briefly: Displacement of [3H]T0901317 from recombinant human GST-fused RORalpha LBD after 1 to 4 hrs by microbeta scintillation counting method.

The nature of series [6]: Solubility of the compound in NaCl/HCl buffer at pH 1.2 by shake-flask method. The format is physicochemical.
A short description of series [7]: Stability in human liver microsomes assessed as parent compound remaining after 2 hrs by LC-MS/MS analysis. The format is ADME, microsome. Conditions: read-out: Stability.
For series [8], the target named is T2, Nuclear receptor ROR-gamma. Put plainly: Displacement of [3H]-Digoxin from recombinant human GST-fused RORgammat LBD after 1 to 4 hrs by scintillation counting method. On the technique in general: Loss of bound radioactivity is the signal in a displacement assay; it reports binding, not function.
For series [9], the target named is T6, Nuclear receptor ROR-beta (Homo sapiens, UniProt Q92753).
T6 sequence (Q92753 whole entry): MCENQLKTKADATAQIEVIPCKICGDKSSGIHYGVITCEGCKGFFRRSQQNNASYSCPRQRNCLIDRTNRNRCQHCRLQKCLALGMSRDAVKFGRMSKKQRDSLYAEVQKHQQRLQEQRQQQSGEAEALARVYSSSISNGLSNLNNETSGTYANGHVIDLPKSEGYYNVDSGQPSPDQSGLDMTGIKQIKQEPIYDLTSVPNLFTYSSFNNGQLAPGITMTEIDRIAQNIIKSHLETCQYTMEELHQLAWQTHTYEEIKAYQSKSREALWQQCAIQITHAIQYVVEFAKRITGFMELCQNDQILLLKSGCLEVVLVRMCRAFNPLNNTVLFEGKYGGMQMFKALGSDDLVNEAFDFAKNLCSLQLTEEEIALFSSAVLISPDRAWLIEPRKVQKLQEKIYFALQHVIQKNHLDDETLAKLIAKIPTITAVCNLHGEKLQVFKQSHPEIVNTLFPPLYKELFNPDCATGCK
Put plainly: Transrepression of recombinant human GAL4-DBD fused RORbeta LBD expressed in HEK293 cells after 20 hrs by luciferase reporter gene assay. The series is classed as cell-based.

Series [10] concerns the target T7, Oxysterols receptor LXR-beta (Homo sapiens, UniProt P55055).
T7 sequence (P55055 whole entry): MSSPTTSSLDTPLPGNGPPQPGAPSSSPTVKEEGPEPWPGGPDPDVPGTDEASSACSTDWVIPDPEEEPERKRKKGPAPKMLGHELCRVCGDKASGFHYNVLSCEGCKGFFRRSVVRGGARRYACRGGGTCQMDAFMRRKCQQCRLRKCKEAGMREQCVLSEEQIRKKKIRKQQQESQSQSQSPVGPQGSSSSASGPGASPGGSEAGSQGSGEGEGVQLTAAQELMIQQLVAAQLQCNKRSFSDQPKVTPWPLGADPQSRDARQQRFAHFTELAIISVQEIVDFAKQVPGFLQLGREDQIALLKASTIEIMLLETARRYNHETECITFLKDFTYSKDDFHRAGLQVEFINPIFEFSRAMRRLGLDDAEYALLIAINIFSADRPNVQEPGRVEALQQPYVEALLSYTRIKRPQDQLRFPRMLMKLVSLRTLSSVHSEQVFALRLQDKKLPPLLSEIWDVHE
Put plainly: Transrepression of recombinant human GAL4-DBD fused LXRbeta LBD expressed in HEK293 cells after 20 hrs by luciferase reporter gene assay. The series is classed as cell-based.

Series [11] is described as follows: Stability in rat liver microsomes assessed as parent compound remaining after 2 hrs by LC-MS/MS analysis. The format is ADME, microsome. Conditions: read-out: Stability.
Series [12] in a line: Solubility of the compound in KH2PO4/Na2HPO4 buffer at pH 6.8 by shake-flask method. The series is classed as physicochemical.
In series [13] the target is T8, Nuclear receptor ROR-gamma (Mus musculus) (UniProt P51450).
T8 sequence (whole entry): T4 sequence (P51450 whole entry)
Briefly: (§2) Transrepression of recombinant mouse GAL4-DBD fused RORgammat LBD expressed in HEK293 cells after 20 hrs by luciferase reporter gene assay. The series is classed as cell-based.

The target of series [14] is T4, Nuclear receptor ROR-gamma. Described as §2. The format is cell-based.

SMILES strings stand for the structures. Values after ≈ are worked out from the molar mass of the structure shown.

What is called EC50 is the concentration at which the effect is half-maximal. In general, IC50 refers to the point on the concentration scale where inhibition reaches its midpoint. By thermodynamic solubility is commonly meant the concentration in solution at equilibrium with solid. Take `CCS(=O)(=O)c1ccc(CC(=O)Nc2ccc(C(C)(C)C(=O)Nc3ccc(F)cc3)cc2)cc1`: the EC50 in [1] and in [10] was greater than 30000 nM throughout. The IC50 was 33 nM in series [2]; 1100 nM in [4]; greater than 10000 nM in series [5]; less than 30 nM in [8]; greater than 10000 nM in series [9]; 550 nM in series [14]. For the same molecule, the Efficacy worked out at 93% in series [3] and 78% in series [13]. Moreover, the results for the thermodynamic solubility in [6] and in series [12] were 39 µM (≈ 18.8 µg/mL) and 31 µM (≈ 15 µg/mL), respectively. The remaining at 2 h worked out at 75% in [7] and 70% in [11].
